Patent publication EP0100569A1, “Spasmolytically active (+)S-enantiomer of secoverine” (DUPHAR INT[…] B.V, priority 1982, dated 1984)
Counter-ions that a name gives are not always drawn.

Tests used:
vas deferens of the rat = assay: Potentiation of the activity of noradrenaline on the vas deferens in vitro; type: cell-based; settings: for EC (2-fold shift): Rattus norvegicus, negative logarithm of the molar concentration giving a shift to the left of a factor 2 of the noradrenaline curve, read-out: pP2-value (converted); for noradrenaline potentiation: rat vas deferens in vitro
Description: The test used is a modification of the method as described by Ursillo and Jacobsen, J. Pharmacol. Ex. Ther. 148, (1965), 247.
The smallest dose which gave a potentiating effect was […], and the potentiating activity was maximum in a quantity of 5 x 10 7M. Higher dosages caused a non--specific decrease of the maximum of the noradrenaline curve.
For quantifying the effect at the 50% point of the contraction curve (maximum of the control noradrenaline curve = 100%), the shift of the curve obtained with the compound to be tested (expressed as DR) was measured. The pP2-values were calculated in the same manner as the pA2-values mentioned sub b), according to the equation
^pP2 ^= -log [secoverine] + log (DR-1).

cornea of male mice = assay: Local anaesthetic activity on the cornea; type: in vivo; settings: concentration of solution giving local anaesthesia in 50% of the animals, 10 per dose, determined graphically
Experimental: The anaesthetic activity on the cornea of male mice (18-22 g), 10 animals per dose, was determined according to the method by Weidmann and Petersen, J. Pharmacol. Exp. Ther., 115 (1955), 246. The concentration of the solution of the compounds which gave local anaesthesia in 50% of the animals was determined graphically (EC50--value): […]

guinea pig ileum = assay: Peripheral spasmolytic activity in vitro, 4-point analysis, carbachol as spasmogen; type: cell-based
Experimental: These tests were carried out according to the normal 4--point analysis in which the termina-1 guinea pig ileum was used as isolated organ and carbachol was used as a cholinergic spasmogen.
(§1) The required organs were isolated from killed guinea pigs and the contents and adherent tissues were carefully removed from suitable pieces. The said organs were then suspended in a bath containing 50 ml of Tyrode solution through which oxygen was led. The spasmogenically active substance (carbachol) was added to the bath inter- mittem tly and, after a constant response to the spasmogen had been obtained, the spasmolytic activity of the substances to be tested was measured by adding them to the bath 30 seconds prior to the spasmogen.
The relative activity of the (+)-enantiomer of secoverine as compared with the racemate was calculated fron, a series of 4-point assays: the (+)-enantiomer of secoverine was 1.86 times as active as the racemate.

rat jejunum = assay: Peripheral spasmolytic activity in vitro, furtrethonium as spasmogen; type: cell-based
Experimental: as §1
Similar results were obtained by using rat jejunum as an organ and using furtrethonium as a spasmogenically active substance: the (+)-enantiomer of secoverine now was 2.10 times as active as the racemate.

guinea pigs = assay: Anticholinergic activity in vivo, carbachol as spasmogen; settings: i.v.
Experimental: These tests were carried out according to the method by J.M.A. Zwagemakers, Arzneimittelforschung, 30 (II), (1980), 1517-1526 in which carbachol was used as a spasmogenically active substance. After a constant response to the spasmogen had been obtained, the compound to be tested was administered intravenously (i.v.) to guinea pigs 3 minutes prior to the next quantity of spasmogenically active substance. The activity of the compounds was determined for 52 minutes. Contractions obtained after preceding administration of the substance to be tested were expressed as percentages of the average of two control values and were plotted graphically. The average percentage of inhibition during the period of 52 minutes was calculated from the area under the curve, and the maximum inhibition and the duration of the spasmolytic activity were estimated by means of the time-contraction curve. The spasmolytic activity is considered to be terminated when two successive contractions show less than 20% inhibition.

SMILES	EC (2-fold shift) (vas deferens of the rat) [µM]	noradrenaline potentiation (vas deferens of the rat)	EC50-value (% w/vol) (cornea of male mice)	relative activity as compared with the racemate (guinea pig ileum; guinea pig ileum, carbachol, series of 4-point assays) [times]	anticholinergic spasmolytic activity in peripheral organs relative to the racemate (guinea pig ileum; summary statement)	relative activity as compared with the racemate (rat jejunum) [times]	activity in vivo relative to the racemate (guinea pigs)
CCN(CCCC(=O)C1CCCCC1)C(C)Cc1ccc(OC)cc1 (racemic) [racemate]	0.309	significant noradrenaline potentiation	0.13				
CCN(CCCC(=O)C1CCCCC1)[C@@H](C)Cc1ccc(OC)cc1 [(+)-enantiomer of secoverine, (+)S-1-cyclohexyl-4-[ethyl(p-methoxy-α-methylphenethyl)--amino]-l-butanone hydrochloride]	0.263	significant noradrenaline potentiation	0.20	1.86	approximately twice as strong	2.10	about twice as active
CCN(CCCC(=O)C1CCCCC1)[C@H](C)Cc1ccc(OC)cc1 [(-)-enantiomer of secoverine]	0.17	significant noradrenaline potentiation	0.08				
